Source: ChEMBL document CHEMBL1201862, “PubChem BioAssay data set” (2004)
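Each compound was tested at five concentrations against cells in 96-well plates for 48 hours. GI50 is the concentration that inhibits growth by half.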 Calls of active or inactive are those of the source. No stated cut-off is given here; in the data, active = GI50 up to about 1.1 µM and inactive = higher.

Experiments:
Assay in all cases: NCI anticancer screen, dose series, 48 h
786-0 = test system: 786-0
COLO 205 = test system: COLO 205
HOP-62 = test system: HOP-62
HOP-92 = test system: HOP-92
IGROV-1 = test system: IGROV-1
M14 = test system: M14
NCI-H23 = test system: NCI-H23
NCI-H460 = test system: NCI-H460
OVCAR-5 = test system: OVCAR-5
OVCAR-8 = test system: OVCAR-8
SK-MEL-2 = test system: SK-MEL-2
SW-620 = test system: SW-620
U-251 = test system: U-251
A498 = test system: A498
DU-145 = test system: DU-145
SN12C = test system: SN12C
MDA-MB-231 = test system: MDA-MB-231
T47D = test system: T47D

| Structure (SMILES) | GI50 (786-0) | GI50 (COLO 205) | GI50 (HOP-62) | GI50 (HOP-92) | GI50 (IGROV-1) | GI50 (M14) | GI50 (NCI-H23) | GI50 (NCI-H460) | GI50 (OVCAR-5) | GI50 (OVCAR-8) | GI50 (SK-MEL-2) | GI50 (SW-620) | GI50 (U-251) | GI50 (A498) | GI50 (DU-145) | GI50 (SN12C) | GI50 (MDA-MB-231) | GI50 (T47D) |
| --- | --- | --- | --- | --- | --- | --- | --- | --- | --- | --- | --- | --- | --- | --- | --- | --- | --- | --- |
| COC(=O)C(=C\Sc1ccccc1)/C=C/C(=O)OC(C)(C)C | 5.27 µM (inactive) | 5.3 µM (inactive) | 19.5 µM (inactive) | 4.4 µM (inactive) | 13.1 µM (inactive) | 7.78 µM (inactive) | 17.1 µM (inactive) | 17.7 µM (inactive) | 15.4 µM (inactive) | 15.3 µM (inactive) | 12 µM (inactive) | 3.8 µM (inactive) | 14.5 µM (inactive) | – | – | – | – | – |
| CCOC(=O)C=C1CCC2(CC1)OCCO2 | > 100 µM (inactive) | > 100 µM (inactive) | – | > 100 µM (inactive) | > 100 µM (inactive) | > 100 µM (inactive) | > 100 µM (inactive) | > 100 µM (inactive) | > 100 µM (inactive) | > 100 µM (inactive) | > 100 µM (inactive) | > 100 µM (inactive) | > 100 µM (inactive) | > 100 µM (inactive) | > 100 µM (inactive) | > 100 µM (inactive) | – | – |
| CC(=O)N1C(NN(C)C)CCN1c1ccccc1 (stereo not drawn) | > 10 µM (inactive) | > 10 µM (inactive) | > 10 µM (inactive) | > 10 µM (inactive) | > 10 µM (inactive) | > 10 µM (inactive) | > 10 µM (inactive) | – | – | > 10 µM (inactive) | – | > 10 µM (inactive) | – | – | > 10 µM (inactive) | > 10 µM (inactive) | > 10 µM (inactive) | > 10 µM (inactive) |
| COc1ccc2nc3c(C(=O)NCCN(C)C)cccc3nc2c1 | 7 µM (inactive) | 4.28 µM (inactive) | 7.23 µM (inactive) | 4.34 µM (inactive) | 5.61 µM (inactive) | 5.56 µM (inactive) | 4.73 µM (inactive) | – | 11.2 µM (inactive) | 5.16 µM (inactive) | 6.21 µM (inactive) | 3.1 µM (inactive) | 5 µM (inactive) | 1.84 µM (inactive) | – | 3.41 µM (inactive) | – | – |
| N#Cc1c2nc3ccccc3nc2n2ccccc12 | > 100 µM (inactive) | > 100 µM (inactive) | > 100 µM (inactive) | – | > 100 µM (inactive) | > 100 µM (inactive) | > 100 µM (inactive) | > 100 µM (inactive) | > 100 µM (inactive) | > 100 µM (inactive) | > 100 µM (inactive) | > 100 µM (inactive) | > 100 µM (inactive) | 76 µM (inactive) | – | > 100 µM (inactive) | – | – |
| CC(=O)OC1C/C(C)=C/[C@H](O)CC(C)/C=C/[C@@]2(C)CCC(C(C)(C)O)C12 (stereo partly drawn) | > 100 µM (inactive) | > 100 µM (inactive) | > 100 µM (inactive) | > 100 µM (inactive) | > 100 µM (inactive) | > 100 µM (inactive) | > 100 µM (inactive) | > 100 µM (inactive) | > 100 µM (inactive) | > 100 µM (inactive) | > 100 µM (inactive) | > 100 µM (inactive) | > 100 µM (inactive) | > 100 µM (inactive) | – | > 100 µM (inactive) | – | – |
| C#CCOCn1cnc2c(Sc3c([N+](=O)[O-])ncn3C)ncnc21 | > 100 µM (inactive) | > 100 µM (inactive) | > 100 µM (inactive) | > 100 µM (inactive) | > 100 µM (inactive) | > 100 µM (inactive) | > 100 µM (inactive) | > 100 µM (inactive) | > 100 µM (inactive) | > 100 µM (inactive) | > 100 µM (inactive) | > 100 µM (inactive) | > 100 µM (inactive) | > 100 µM (inactive) | – | > 100 µM (inactive) | – | – |
| CC12OC3CC(O1)C1(C=O)C4CCC5(C)C(c6ccc(=O)oc6)CCC5(O)C4CCC1(C3)O2 (stereo not drawn) | 0.122 µM (active) | 0.483 µM (active) | 0.146 µM (active) | 0.339 µM (active) | 0.341 µM (active) | 0.242 µM (active) | – | 0.0518 µM (active) | 0.383 µM (active) | 0.256 µM (active) | 0.268 µM (active) | 0.177 µM (active) | 0.293 µM (active) | 0.33 µM (active) | – | 0.0621 µM (active) | – | – |
| Cc1ccc(O)c(C(=O)CCCC(=O)c2cc(C)ccc2O)c1 | 38.3 µM (inactive) | > 100 µM (inactive) | > 100 µM (inactive) | 61 µM (inactive) | > 100 µM (inactive) | > 100 µM (inactive) | > 100 µM (inactive) | > 100 µM (inactive) | > 100 µM (inactive) | > 100 µM (inactive) | > 100 µM (inactive) | 30.2 µM (inactive) | 52.4 µM (inactive) | > 100 µM (inactive) | – | > 100 µM (inactive) | – | – |
| O=C1c2cccc(O)c2C(=O)c2cccc(O)c21 [ANTHRARUFIN] | > 100 µM (inactive) | > 100 µM (inactive) | > 100 µM (inactive) | > 100 µM (inactive) | > 100 µM (inactive) | > 100 µM (inactive) | > 100 µM (inactive) | > 100 µM (inactive) | > 100 µM (inactive) | > 100 µM (inactive) | > 100 µM (inactive) | > 100 µM (inactive) | > 100 µM (inactive) | > 100 µM (inactive) | – | > 100 µM (inactive) | – | – |
